Earlier results, collected in patent US9446139B2, “Polymer-based compositions and conjugates of HIV entry inhibitors” (Nektar Therapeutics, priority 2004, dated 2016).

Columns and labels:
[1] = 90-mg single subcutaneous dose (N=12)

enfuvirtide
mean elimination half life [1]: 3.8 ± 0.6 h
mean±SD apparent clearance [1]: 24.8 ± 4.1 mL/h/kg
mean duration of each ISR (human, in vivo): around 7 days
patients reporting at least one instance of painful or troublesome local injection site reactions (ISR) (subcutaneous injection two times a day): 98%
